Measured values published in patent US7439263B2, “Pyrrolidine and thiazolidine compounds” (Les Laboratoires Servier, priority 2004, dated 2008).
Where a name gives a salt, the structure may show the parent alone.

Target: T1, Dipeptidyl-Peptidase IV (DPP IV) (Sus scrofa, UniProt P22411)
T1 construct: using 10 μl of the pig kidney preparation; from tissue; host or cells: pig kidney membrane fraction, solubilised with n-octyl-β-glucopyranoside
Assay: Inhibition of dipeptidyl-peptidase IV in pig kidney (Gly-Pro-pNA cleavage, absorbance at 405 nm)
Assay type: biochemical
Conditions: pig kidney membrane preparation; substrate Gly-Pro-pNA; 60 min at 37° C.; geometric mean of the IC50s
Procedure: Inhibition of Dipeptidyl-Peptidase IV in Pig Kidney
Preparation of the Membrane Fraction of Pig Kidney
Pig kidney tissue (large white pig, 2 to 3 months' old) was homogenised (5 g of tissue in 15 ml of Tris buffer (114 mM, pH 7.8-8)) and then centrifuged at 150000×g for 30 min. at 4° C. The pellet was taken up in 15 ml of buffer and re-centrifuged at 150000×g for 30 min. at 4° C. With stirring, the resulting pellet was dissolved in 15 ml of buffer with 60 mM n-octyl-β-glucopyranoside for 30 min. at ambient temperature. After centrifugation at 150000×g for 30 min. at 4° C., the supernatant was dialysed (MWCO 12-14000) against 114 mM Tris pH 7.8-8, and then divided into aliquots at —80° C.
Measurement of Dipetidyl Peptidase IV (DPP IV) Activity
The enzymatic activity is measured by cleavage of a chromogenic substrate, glycyl-prolyl-p-nitroanilide (Gly-Pro-pNA), giving Gly-Pro and pNA (p-nitroaniline); the latter is detected by absorbance at 405 nm. The activity is measured in the absence (control) or in the presence of 10 μl of the inhibitors, using 10 μl of the pig kidney preparation (0.81 mU, 1U=1 μmol of pNA product/min. at 37° C.). Incubation is started by adding the substrate (250 μl), dissolved in Tris buffer (114 mM) pH 7.8-8, over a period of 60 min. at 37° C. […] The results were expressed as a percentage of the control, and the IC50 values (effective dose for 50% inhibition of the control activity) were determined using non-linear analysis between 0 and 100%, (GraphPad Prism version 4.01 for Windows). Each measurement was carried out in quadruplicate and each IC50 determination was carried out from 1 to 5 times.
The results obtained (geometric mean of the IC50s) for the compounds representing the invention are compiled in the following Table: […]

T1 sequence (P22411 whole entry): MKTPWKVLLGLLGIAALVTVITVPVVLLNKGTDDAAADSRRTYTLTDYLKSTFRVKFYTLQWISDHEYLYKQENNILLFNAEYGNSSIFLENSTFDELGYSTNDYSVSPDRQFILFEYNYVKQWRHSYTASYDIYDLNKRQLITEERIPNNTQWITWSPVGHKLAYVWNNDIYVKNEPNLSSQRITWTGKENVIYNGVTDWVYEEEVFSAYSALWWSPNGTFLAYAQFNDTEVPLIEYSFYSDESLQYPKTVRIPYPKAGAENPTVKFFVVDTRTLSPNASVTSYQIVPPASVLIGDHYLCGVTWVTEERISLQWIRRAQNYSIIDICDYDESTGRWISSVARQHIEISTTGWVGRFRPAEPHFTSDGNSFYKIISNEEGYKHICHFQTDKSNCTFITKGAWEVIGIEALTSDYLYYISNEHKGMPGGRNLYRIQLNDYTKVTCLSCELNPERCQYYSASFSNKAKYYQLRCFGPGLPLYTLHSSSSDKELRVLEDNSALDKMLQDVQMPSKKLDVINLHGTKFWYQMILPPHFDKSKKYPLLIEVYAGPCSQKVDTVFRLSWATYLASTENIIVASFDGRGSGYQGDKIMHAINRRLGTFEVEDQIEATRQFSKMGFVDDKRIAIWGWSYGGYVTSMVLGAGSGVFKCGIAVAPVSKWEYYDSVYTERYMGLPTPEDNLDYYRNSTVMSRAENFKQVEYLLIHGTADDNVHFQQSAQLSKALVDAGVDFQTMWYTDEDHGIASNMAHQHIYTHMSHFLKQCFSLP

Row | Structure (SMILES) | IC50
1 | N#C[C@@H]1CCCN1C(=O)CNC1(CO)CCC2(CCOCC2)CC1 [Example 1, (2S)-1-({[9-(Hydroxymethyl)-3-oxaspiro[5.5]undec-9-yl]amino}-acetyl)-2-pyrrolidinecarbonitrile] | 0.0761 µM
2 | N#C[C@@H]1CCCN1C(=O)CNC1(CO)CCC2(CCCCC2)CC1 [Example 5, (2S)-1-({[3-(Hydroxymethyl)spiro[5.5]undec-3-yl]amino}acetyl)-2-pyrrolidinecarbonitrile] | 0.0685 µM
3 | N#C[C@@H]1CCCN1C(=O)CNC1(CO)CC2(CCCC2)C1 [Example 17, (2S)-1-({[2-(Hydroxymethyl)spiro[3.4]oct-2-yl]amino}acetyl)-2-pyrrolidinecarbonitrile hydrochloride] | 0.0436 µM
4 | N#C[C@@H]1CCCN1C(=O)CNC1CCC2(CCNCC2)CC1 [Example 20, (2S)-1-[(3-Azaspiro[5.5]undec-9-ylamino)acetyl]-2-pyrrolidine-carbonitrile bis(trifluoroacetate)] | 0.0731 µM
5 | N#C[C@@H]1CCCN1C(=O)CNC1CCC2(CC1)CC2 [Example 28, (2S)-1-[(Spiro[2.5]oct-6-ylamino)acetyl]-2-pyrrolidinecarbonitrile] | 0.171 µM

Compounds with a lower IC50, results first:

Row | IC50 | Structure (SMILES)
6 | 0.0316 µM | N#C[C@@H]1C[C@H](F)CN1C(=O)CNC1(CO)CCC2(CCOCC2)CC1 [Example 29, (2S,4S)4-Fluoro-1-({[9-(hydroxymethyl)-3-oxaspiro[5.5]undec-9-yl]-amino}acetyl)-2-pyrrolidinecarbonitrile]
7 | 0.0272 µM | N#C[C@@H]1CCCN1C(=O)CNC1CCC2(CCCCCCC2)CC1 [Example 6, (2S)-1-[(Spiro[5.7]tridec-3-ylamino)acetyl]-2-pyrrolidinecarbonitrile hydrochloride]
8 | 0.027 µM | N#C[C@@H]1CCCN1C(=O)CNC1CCC2(CCSCC2)CC1 [Example 23, (2S)-1-[(3-Thiaspiro[5.5]undec-9-ylamino)acetyl]-2-pyrrolidine-carbonitrile hydrochloride]
9 | 0.023 µM | N#C[C@@H]1CCCN1C(=O)CNC1CCC2(CC1)CCC1(CCCCC1)CC2 [Example 8, (2S)-1-[(Dispiro[5.2.5.2]hexadec-3-ylamino)acetyl]-2-pyrrolidine-carbonitrile]
10 | 0.0205 µM | N#C[C@@H]1CC(F)(F)CN1C(=O)CNC1(CO)CCC2(CCOCC2)CC1 [Example 30, (2S)-4,4-Difluoro-1-({[9-(hydroxymethyl)-3-oxaspiro[5.5]undec-9-yl]amino}acetyl)-2-pyrrolidinecarbonitrile]
11 | 0.0035 µM | N#C[C@@H]1CSCN1C(=O)CNC1CCC2(CCCCC2)CC1 [Example 18, (4R)-3-[(Spiro[5.5]undec-3-yl-amino)acetyl]-1,3-thiazolidine-4-carbonitrile trifluoroacetate]
